This test has as its target ROCK2 (Homo sapiens (Human), UniProt O75116). Briefly: ROCK assay (Caliper LABCHIP peptide phosphorylation, 5 μM ATP). The class given is biochemical. Here is the method: The effectiveness of compounds of the present invention as ROCK inhibitors can be determined in a 30 μL assay containing 20 mM HEPES, pH 7.5, 20 mM MgCl2, 0.015% Brij-35, 4 mM DTT, 5 μM ATP and 1.5 μM peptide substrate (FITC-AHA-AKRRRLSSLRA-OH) (SEQ ID No. 1). Compounds were dissolved in DMSO so that the final concentration of DMSO was <2%, and the reaction was initiated with Rho kinase variants. After incubation, the reaction was terminated by the addition of EDTA and the phosphorylated and non-phosphorylated peptides separated using a LABCHIP® 3000 Reader (Caliper Life Sciences). […] Compounds were tested in dose-response format, and the inhibition of kinase activity was calculated at each concentration of compound. The inhibition data were fit using a curve-fitting program to determine the IC50; i.e., the concentration of compound required to inhibit 50% of kinase activity. Representative Examples were tested in the ROCK assay described above and found having ROCK inhibitory activity. A range of ROCK inhibitory activity (IC50 values) of ≤50 μM (50000 nM) was observed. Table A below lists the ROCK IC50 values measured for the following examples.

The term IC50 denotes the concentration that gives 50% inhibition.

Sequence of ROCK2 (O75116 whole entry, species assumed): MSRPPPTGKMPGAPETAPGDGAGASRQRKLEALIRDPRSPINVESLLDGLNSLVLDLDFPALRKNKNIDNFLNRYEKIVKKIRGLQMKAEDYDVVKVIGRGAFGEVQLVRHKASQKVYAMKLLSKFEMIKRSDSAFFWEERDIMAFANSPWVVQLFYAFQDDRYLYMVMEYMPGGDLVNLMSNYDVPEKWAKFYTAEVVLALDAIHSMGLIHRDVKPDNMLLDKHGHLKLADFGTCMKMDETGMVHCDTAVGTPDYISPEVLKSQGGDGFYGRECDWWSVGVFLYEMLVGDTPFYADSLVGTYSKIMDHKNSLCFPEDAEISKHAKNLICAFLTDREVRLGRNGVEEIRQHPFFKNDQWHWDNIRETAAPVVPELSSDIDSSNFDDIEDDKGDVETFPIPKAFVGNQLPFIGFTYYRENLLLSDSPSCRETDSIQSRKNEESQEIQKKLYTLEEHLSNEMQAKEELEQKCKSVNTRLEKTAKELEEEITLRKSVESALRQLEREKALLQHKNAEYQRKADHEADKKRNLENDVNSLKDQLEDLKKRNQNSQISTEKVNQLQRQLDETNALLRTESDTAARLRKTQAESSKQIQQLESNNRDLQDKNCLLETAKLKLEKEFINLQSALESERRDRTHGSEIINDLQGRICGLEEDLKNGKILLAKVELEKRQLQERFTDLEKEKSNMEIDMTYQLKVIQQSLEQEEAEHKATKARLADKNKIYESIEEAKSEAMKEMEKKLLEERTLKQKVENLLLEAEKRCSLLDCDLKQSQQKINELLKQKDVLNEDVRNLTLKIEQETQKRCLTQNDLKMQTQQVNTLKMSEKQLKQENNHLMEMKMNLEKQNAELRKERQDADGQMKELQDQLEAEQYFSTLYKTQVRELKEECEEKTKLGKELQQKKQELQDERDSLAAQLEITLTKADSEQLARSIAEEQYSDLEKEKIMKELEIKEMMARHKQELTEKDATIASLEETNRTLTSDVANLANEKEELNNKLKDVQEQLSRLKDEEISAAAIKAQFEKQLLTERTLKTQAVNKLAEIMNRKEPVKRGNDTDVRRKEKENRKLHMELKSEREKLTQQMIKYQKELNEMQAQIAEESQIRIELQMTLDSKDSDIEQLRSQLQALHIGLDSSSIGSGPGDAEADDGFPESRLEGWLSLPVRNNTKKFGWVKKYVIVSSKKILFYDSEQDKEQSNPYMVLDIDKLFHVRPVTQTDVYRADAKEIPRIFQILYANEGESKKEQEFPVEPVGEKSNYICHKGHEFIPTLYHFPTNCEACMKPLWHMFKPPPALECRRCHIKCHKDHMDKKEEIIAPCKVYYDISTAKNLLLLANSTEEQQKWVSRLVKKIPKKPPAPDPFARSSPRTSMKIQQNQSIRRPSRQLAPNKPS

Take `[H][C@]1(Oc2ncccc2C(N)=O)C[C@]2(C[C@@H](Nc3nccc(-c4ccc(C(=O)N(C)C)cc4)n3)C2)C1` (stereo partly drawn) [Example 50, 2-(((2S,4s,6S)-6-((4-(4-(dimethyl-carbamoyl)phenyl)pyrimidin-2-yl)amino)spiro[3.3]heptan-2-yl)oxy) nicotinamide]: it took 1100 nM to reach half-maximal inhibition (IC50).
Under `[H][C@]1(Oc2ncccc2C(N)=O)C[C@]2(C[C@@H](Nc3nccc(N4CCC(F)CC4)n3)C2)C1` (stereo partly drawn) [Example 40, 2-(((2S,4s,6S)-6-((4-(4-fluoro-piperidin-1-yl)pyrimidin-2-yl)amino)spiro [3.3]heptan-2-yl)oxy) nicotinamide] stands 378 nM.
`NC(=O)c1cccnc1O[C@H]1C[C@@]2(C[C@H](Nc3ncnc4ccc(F)cc34)C2)C1` (stereo partly drawn) [Example 26, 2-(((2S,4s,6S)-6-((6-fluoro-quinazolin-4-yl)amino)spiro[3.3]heptan-2-yl)oxy) nicotinamide] gave an IC50 of 128 nM.
Under `[H][C@]1(Oc2ncccc2C(N)=O)C[C@]2(C[C@@H](Nc3ccnc(N4CCCC(F)(F)C4)n3)C2)C1` (stereo partly drawn) [Example 60, 2-(((2S,4s,6S)-6-((2-(3,3-difluoropiperidin-1-yl)pyrimidin-4-yl)amino)spiro[3.3]heptan-2-yl)oxy)nicotinamide] stands 220 nM; under `[H][C@]1(Oc2ncccc2C(N)=O)C[C@]2(C[C@@H](Nc3nccc(N4CCC(C(F)(F)F)CC4)n3)C2)C1` (stereo partly drawn) [Example 43, 2-(((2S,4s,6S)-6-((4-(4-(trifluoro-methyl)piperidin-1-yl)pyrimidin-2-yl)amino)spiro[3.3]heptan-2-yl)oxy) nicotinainide], 165 nM; under `[H][C@]1(Oc2ncccc2C(N)=O)C[C@]2(C[C@@H](Nc3nccc(N4CCC(F)(F)CC4)n3)C2)C1` (stereo partly drawn) [Example 37, 2-(((2S,4s,6S)-6-((4-(4,4-difluoro-piperidin-1-yl)pyrimidin-2-yl)amino)spiro[3.3]heptan-2-yl)oxy) nicotinamide], 202 nM.
Next, `[H][C@]1(Oc2ncccc2C(N)=O)C[C@]2(C[C@@H](Nc3ccnc(N4CCC(F)CC4)n3)C2)C1` (stereo partly drawn) [Example 63, 2-(((2S,4s,6S)-6-((2-(4-fluoro-piperidin-1-yl)pyrimidin-4-yl)amino)spiro [3.3]heptan-2-yl)oxy) nicotinamide]: 733 nM; `COc1ccc2c(N[C@H]3C[C@]4(C3)C[C@H](Oc3ncccc3C(N)=O)C4)nccc2c1` (stereo partly drawn) [Example 33, 2-(((2S,4s,6S)-6-((6-methoxy-isoquinolin-1-yl)amino)spiro [3.3]heptan-2-yl)oxy) nicotinamide]: 17 nM; `NC(=O)c1cccnc1O[C@H]1C[C@@]2(C[C@H](Nc3ncc4cc(F)ccc4n3)C2)C1` (stereo partly drawn) [Example 29, 2-(((2S,4s,6S)-6-((6-fluoro-quinazolin-2-yl)amino)spiro [3.3]heptan-2-yl)oxy) nicotinamide]: 141 nM.
Under `NC(=O)c1cccnc1O[C@H]1C[C@@]2(C[C@H](Nc3nnc(-c4ccc(F)cc4F)o3)C2)C1` (stereo partly drawn) [Example 20, 2-(((2S,4s,6S)-6-((5-(2,4-difluorophenyl)-1,3,4-oxadiazol-2-yl)amino)spiro[3.3]heptan-2-yl)oxy)nicotinamide] stands 537 nM; under “2-(((2S,4r,6S)- 6-((2- ((S)-3- fluoro- pyrrolidin- 1- yl) pyrimidin-4- yl)amino) spiro[3.3] heptan-2- yl)oxy) nicotinamide [Example 69]”, 1560 nM.
For `[H][C@]1(Oc2ncccc2C(N)=O)C[C@]2(C[C@@H](Nc3ccnc(-c4cccc(C(=O)N(C)C)c4)n3)C2)C1` (stereo partly drawn) [Example 67, 2-(((2S,4s,6S)-6-((2-(3-(dimethyl-carbamoyl)phenyl)pyrimidin-4-yl)amino)spiro[3.3]heptan-2-yl)oxy) nicotinamide], the IC50 stood at 1170 nM.
Under `[H][C@]1(Oc2ncccc2C(N)=O)C[C@]2(C[C@@H](Nc3nccc(-c4cccc(F)c4)n3)C2)C1` (stereo partly drawn) [Example 49, 2-(((2S,4s,6S)-6-((4-(3-fluorophenyl)pyrimidin-2-yl)amino)spiro[3.3]heptan-2-yl)oxy) nicotinamide] stands 149 nM; under `NC(=O)c1cccnc1O[C@H]1C[C@@]2(C[C@H](Nc3nc4ccc(F)cc4s3)C2)C1` (stereo partly drawn) [Example 2, 2-(((2S,4s,6S)-6-((6-fluorobenzo[d]thiazol-2-yl)amino)spiro[3.3]heptan-2-yl)oxy)nicotinamide], 156 nM.
Under `COc1ccc2ncnc(N[C@H]3C[C@]4(C3)C[C@H](Oc3ncccc3C(N)=O)C4)c2c1` (stereo partly shown) [Example 23] stands 62 nM; under `COc1ccc2c(N[C@H]3C[C@]4(C3)C[C@H](Oc3ncccc3C(N)=O)C4)nc(OC)cc2c1` (stereo partly shown) [Example 32], 68 nM.
`NC(=O)c1cccnc1OC1CC2(CC(Nc3ncc4cc(Br)ccc4n3)C2)C1` [Example 35, 2-(((2S,4s,6S)-6-((6-bromo-quinazolin-2-yl)amino)spiro[3.3]heptan-2-yl)oxy) nicotinamide] gave an IC50 of 192 nM.
Under `[H][C@]1(Oc2ncccc2C(N)=O)C[C@]2(C[C@@H](Nc3ccnc(N4CCC(F)(F)CC4)n3)C2)C1` (stereo partly drawn) [Example 61, 2-(((2S,4s,6S)-6-((2-(4,4-difluoro-piperidin-1-yl)pyrimidin-4-yl)amino)spiro[3.3]heptan-2-yl)oxy) nicotinamide] stands 334 nM; under `Cc1ccc2c(N[C@H]3C[C@]4(C3)C[C@H](Oc3ncccc3C(N)=O)C4)nccc2c1` (stereo partly drawn) [Example 31, 2-(((2S,4s, 6S)-6-((6-methyl-isoquinolin-1-yl)amino)spiro [3.3]heptan-2-yl)oxy) nicotinamide], 47 nM.
Molecule `[H][C@]1(Oc2ncccc2C(N)=O)C[C@]2(C[C@@H](Nc3nccc(-c4cccc(C#N)c4)n3)C2)C1` (stereo partly drawn) [Example 52, 2-(((2S,4s,6S)-6-((4-(3-cyanophenyl)pyrimidin-2-yl)amino)spiro[3.3]heptan-2-yl)oxy) nicotinamide] showed an IC50 of 87 nM.
For the molecule `[H][C@]1(Oc2ncccc2C(N)=O)C[C@]2(C[C@@H](Nc3ccnc(-c4cccc(F)c4)n3)C2)C1` (stereo partly drawn) [Example 70, 2-(((2S,4s,6S)-6-((2-(3-fluorophenyl)pyrimidin-4-yl)amino)spiro[3.3]heptan-2-yl)oxy) nicotinamide], the IC50 amounted to 2240 nM.
Under `[H][C@]1(Oc2ncccc2C(N)=O)C[C@@]2(C[C@H](Nc3nccc(N4CC[C@H](F)C4)n3)C2)C1` (stereo partly drawn) [Example 42, 2-(((2S,4r,6S)-6-((4-((S)-3-fluoro-pyrrolidin-1-yl)pyrimidin-2-yl)amino)spiro [3.3]heptan-2-yl)oxy) nicotinamide] stands 2030 nM; under `NC(=O)c1cccnc1O[C@H]1C[C@@]2(C[C@H](Nc3nc4ccc(Cl)cc4s3)C2)C1` (stereo partly drawn) [Example 3, 2-(((2S,4s,6S)-6-((6-chlorobenzo[d]thiazol-2-yl)amino)spiro[3.3]heptan-2-yl)oxy)nicotinamide], 268 nM; under `NC(=O)c1cccnc1O[C@H]1C[C@@]2(C[C@H](Nc3nc(-c4ccccc4F)cs3)C2)C1` (stereo partly drawn) [Example 11, 2-(((2S,4s,6S)-6-((4-(2-fluorophenyl)thiazol-2-yl)amino)spiro [3.3]heptan-2-yl)oxy)nicotinamide], 1160 nM.
Under `Cn1c(N[C@H]2C[C@]3(C2)C[C@H](Oc2ncccc2C(N)=O)C3)nc2c(F)cccc21` (stereo partly drawn) [Example 14, 2-(((2S,4s,6S)-6-((4-fluoro-1-methyl-1H-benzo[d]imidazol-2-yl)amino)spiro[3.3]heptan-2-yl)oxy)nicotinamide] stands 320 nM; under `[H][C@]1(Oc2ncccc2C(N)=O)C[C@]2(C[C@@H](Nc3nccc(-c4ccc(C#N)cc4)n3)C2)C1` (stereo partly drawn) [Example 48, 2-(((2S,4s,6S)-6-((4-(4-cyanophenyl)pyrimidin-2-yl)amino)spiro[3.3]heptan-2-yl)oxy) nicotinamide], 204 nM.
Under `[H][C@]1(Oc2ncccc2C(N)=O)C[C@]2(C[C@@H](Nc3nccc(-c4ccncc4)n3)C2)C1` (stereo partly drawn) [Example 46, 2-(((2S,4s,6S)-6-((4-(pyridin-4-yl)pyrimidin-2-yl)amino)spiro[3.3]heptan-2-yl)oxy)nicotinamide] stands 557 nM.
Regarding `[H][C@]1(Oc2ncccc2C(N)=O)C[C@]2(C[C@@H](Nc3ccnc(N4CCCC(F)C4)n3)C2)C1` (stereo partly drawn) [Example 64, 2-(((2S,4s,6S)-6-((2-(3-fluoro-piperidin-1-yl)pyrimidin-4-yl)amino)spiro [3.3]heptan-2-yl)oxy) nicotinamide], half-maximal inhibition (IC50) was put at 890 nM.
On to `[H][C@]1(Oc2ncccc2C(N)=O)C[C@]2(C[C@@H](Nc3nccc(-c4cccc(C(=O)N(C)C)c4)n3)C2)C1` (stereo partly drawn) [Example 53, 2-(((2S,4s,6S)-6-((4-(3-(dimethyl-carbamoyl)phenyl)pyrimidin-2-yl)amino)spiro[3.3]heptan-2-yl)oxy) nicotinamide], for which it took 284 nM to reach half-maximal inhibition (IC50).
Under `[H][C@]1(Oc2ncccc2C(N)=O)C[C@]2(C[C@@H](Nc3ccnc(-c4cccc(C#N)c4)n3)C2)C1` (stereo partly drawn) [Example 66, 2-(((2S,4s,6S)-6-((2-(3-cyanophenyl)pyrimidin-4-yl)amino)spiro[3.3]heptan-2-yl)oxy)nicotinamide] stands 1070 nM; under `[H][C@]1(Oc2ncccc2C(N)=O)C[C@]2(C[C@@H](Nc3ccnc(N4CC(F)(F)C4)n3)C2)C1` (stereo partly drawn) [Example 68, 2-(((2S,4s,6S)-6-((2-(3,3-difluoro-azetidin-1-yl)pyrimidin-4-yl)amino)spiro[3.3]heptan-2-yl)oxy) nicotinamide], 1300 nM.
